For assay [1], the system named is HT-29 colon adenocarcinoma. Briefly: MTT cytotoxicity assay, HT-29. As to conditions: Homo sapiens, HT-29, […], read-out: Cytotoxicity ED50, HT-29.
The subject of another assay is A-549 lung carcinoma. Briefly: MTT cytotoxicity assay, A-549. Particulars: Homo sapiens, A549, […], read-out: Cytotoxicity ED50, A-549.
The next assay has as its system MLM melanoma. Nature of the assay: MTT cytotoxicity assay, MLM. Particulars: read-out: Cytotoxicity ED50, MLM.
A further assay concerns SKMEL-5 melanoma. Nature of the assay: MTT cytotoxicity assay, SKMEL-5. As to conditions: Homo sapiens, SK-MEL-5, […], read-out: Cytotoxicity ED50, SKMEL-5.
The next assay concerns MCF-7 breast carcinoma. Nature of the assay: MTT cytotoxicity assay, MCF-7. As to conditions: Homo sapiens, MCF7, […], read-out: Cytotoxicity ED50, MCF-7.

Read-outs that look alike come from different tables or passages of the source. Where only a bound is given, the exact number is not on record here.

On to `COc1cc(OC)c(OC)cc1CCc1cc(OC)c(OC)c(OC)c1` [8v], for which the IC50 (in assay [1]; in the assay on A-549 lung carcinoma; in the assay with MLM melanoma ([…]); in the assay on SKMEL-5 melanoma; in the assay with MCF-7 breast carcinoma) was greater than 25 µM in each case.
In the case of `COc1cc(/C=C/c2ccccc2)cc(OC)c1OC` [6f], the IC50 (in assay [1]; in the assay on A-549 lung carcinoma; with MLM melanoma ([…]); in the assay on SKMEL-5 melanoma; with MCF-7 breast carcinoma) was greater than 25 µM throughout.
As for `COc1cc(/C=C\c2ccc(C)cc2)cc(OC)c1OC` [15d, (Z)-(4-Methylphenyl)-2-(3,4,5-trimethoxyphenyl)ethene], the IC50 amounted to 0.0023 µM in assay [1]; 0.00094 µM in the assay with A-549 lung carcinoma; 0.0066 µM in the assay with MLM melanoma ([…]); 0.00083 µM in the assay with SKMEL-5 melanoma; 0.024 µM in the assay with MCF-7 breast carcinoma.
The like results for `COc1ccccc1CCc1cc(OC)c(OC)c(OC)c1` [8c] were, in that order, greater than 25 µM, 13.5 µM, greater than 25 µM, 20 µM and 11.8 µM.
In the same order, the values of `COc1ccc(/C=C/c2cc(OC)c(OC(C)=O)c(OC)c2)cc1` [16l, (E)-1-(4-Acetoxy-3,5-dimethoxyphenyl)-2-(4-methoxy-phenyl)ethene] are 11.7 µM, 16.4 µM, 21 µM, 10.2 µM and 19.4 µM.
The like results for `COc1ccc(/C=C/c2cc(OC)cc(OC)c2)cc1` [16i, (E)-1-(3,5-Dimethoxyphenyl)-2-(4-methoxyphenyl)ethene] were, in that order, 6.9 µM, 7.5 µM, greater than 25 µM, 0.88 µM and 9.7 µM.
For `COc1cc(CCc2ccccc2)cc(OC)c1OC` [8f], the IC50 (in assay [1]; with A-549 lung carcinoma; in the assay with MLM melanoma ([…]); in the assay on SKMEL-5 melanoma; with MCF-7 breast carcinoma) was greater than 25 µM throughout.
For the molecule `COc1cc(OC)c(/C=C/c2ccccc2)c(OC)c1` [6x], the IC50 (in assay [1]; in the assay with A-549 lung carcinoma; in the assay with MLM melanoma ([…]); in the assay with SKMEL-5 melanoma; in the assay on MCF-7 breast carcinoma) was greater than 25 µM each time.
For the molecule `COc1ccc(/C=C/c2ccc(OC)c(OC)c2)cc1` [16h, (E)-(4-Methoxyphenyl)-2-(3,4-dimethoxyphenyl)ethene], the IC50 is greater than 25 µM in assay [1]; 11.7 µM in the assay on A-549 lung carcinoma; greater than 25 µM with MLM melanoma ([…]); greater than 25 µM with SKMEL-5 melanoma; greater than 25 µM with MCF-7 breast carcinoma.
`COc1ccc(CNc2cc(OC)cc(OC)c2)cc1` [12e]: the IC50 (in assay [1]; in the assay on A-549 lung carcinoma; in the assay with MLM melanoma ([…]); in the assay on SKMEL-5 melanoma; in the assay with MCF-7 breast carcinoma) was greater than 25 µM throughout.
As to `COc1cc(/C=C/c2ccc(O)cc2)cc(OC)c1OC` [compound 6o, (E)-1-(4-Hydroxyphenyl)-2-(3,4,5-trimethoxyphenyl)ethene], the IC50 in assay [1] is greater than 25 µM; with A-549 lung carcinoma it was greater than 25 µM; in the assay on MLM melanoma ([…]) it was 24.2 µM; in the assay on SKMEL-5 melanoma, 11.6 µM; with MCF-7 breast carcinoma, 18.6 µM.
Turning to `COc1cc(/C=C/c2ccc(Cl)cc2)cc(OC)c1OC` [6g], the IC50 (in assay [1]; in the assay on A-549 lung carcinoma; with MLM melanoma ([…]); in the assay with SKMEL-5 melanoma; in the assay on MCF-7 breast carcinoma) was greater than 25 µM throughout.
Take `COc1ccc(CNc2cc(OC)c(OC)c(OC)c2)cc1OC` [12b]: the IC50 (in assay [1]; with A-549 lung carcinoma; in the assay with MLM melanoma ([…]); with SKMEL-5 melanoma; in the assay with MCF-7 breast carcinoma) was greater than 25 µM each time.
With `COc1ccc(CCc2ccccc2)cc1OC` [8q], the IC50 (in assay [1]; in the assay with A-549 lung carcinoma; with MLM melanoma ([…]); with SKMEL-5 melanoma; in the assay on MCF-7 breast carcinoma) was greater than 25 µM in each case.
Take `COc1ccc(/C=C/c2cc(OC)c(O[Si](C)(C)C(C)(C)C)c(OC)c2)cc1` [16k, (E)-1-[4-{(t-Butyldimethylsilyl)-oxy}-3,5-(dimethoxy)-phenyl]-2-(4-methoxyphenyl)ethene]: the IC50 (in assay [1]; in the assay on A-549 lung carcinoma; with MLM melanoma ([…]); in the assay with SKMEL-5 melanoma; with MCF-7 breast carcinoma) was greater than 25 µM throughout.
On to `COc1ccccc1/C=C/c1cc(OC)c(OC)c(OC)c1` [6c], for which the IC50 in assay [1] is 12.1 µM; in the assay with A-549 lung carcinoma it was 12.2 µM; with MLM melanoma ([…]), greater than 25 µM; in the assay on SKMEL-5 melanoma it was 13.5 µM; in the assay on MCF-7 breast carcinoma, 18 µM.
As for `COc1cc(/C=C/c2cccnc2)cc(OC)c1OC` [6j, 1-(3-Pyridyl)-2-(3,4,5-trimethoxyphenyl)ethene], the IC50 (in assay [1]; in the assay on A-549 lung carcinoma; in the assay with MLM melanoma ([…]); with SKMEL-5 melanoma; with MCF-7 breast carcinoma) was greater than 25 µM throughout.
As to `COc1cc(/C=C/c2ccc([N+](=O)[O-])cc2)cc(OC)c1OC` [compound 6l, (E)-1-(4-Nitrophenyl)-2-(3,4,5-trimethoxyphenyl)ethene], the IC50 (in assay [1]; in the assay on A-549 lung carcinoma; in the assay with MLM melanoma ([…]); with SKMEL-5 melanoma; in the assay with MCF-7 breast carcinoma) was greater than 25 µM each time.
With `COc1cc(CCc2ccc(O)cc2)cc(OC)c1OC` [8o, 1-(4-hydroxyphenyl)-2-(3,4,5-trimethoxyphenyl)ethane], the IC50 (in assay [1]; with A-549 lung carcinoma; in the assay on MLM melanoma ([…]); in the assay on SKMEL-5 melanoma; with MCF-7 breast carcinoma) was greater than 25 µM each time.
`COc1cc(OC)c(OC)cc1/C=C/c1cc(OC)c(OC)c(OC)c1` [6v]: the IC50 (in assay [1]; in the assay on A-549 lung carcinoma; in the assay with MLM melanoma ([…]); with SKMEL-5 melanoma; in the assay with MCF-7 breast carcinoma) was greater than 25 µM each time.
As for `CCc1ccc(/C=C\c2cc(OC)c(OC)c(OC)c2)cc1` [15e, (Z)-(4-Ethylphenyl)-2-(3,4,5-trimethoxyphenyl)ethene], the IC50 in assay [1] is 0.0027 µM; in the assay with A-549 lung carcinoma, 0.012 µM; in the assay with MLM melanoma ([…]), 0.0075 µM; in the assay on SKMEL-5 melanoma, 0.00086 µM; with MCF-7 breast carcinoma, 0.072 µM.
The like results for `COc1cc(/C=C/c2cc(OC)c(OC)c(OC)c2)cc(OC)c1` [6s] were, in that order, greater than 25 µM, greater than 25 µM, greater than 25 µM, greater than 25 µM and greater than 25 µM.
In the same order, the values of `COc1ccc(C(=O)Nc2cc(OC)cc(OC)c2)cc1` [11e] are greater than 25 µM, greater than 25 µM, greater than 25 µM, greater than 25 µM and greater than 25 µM.
In the same order, the values of `COc1cc(/C=C/c2ccncc2)cc(OC)c1OC` [6i, 1-(4-Pyridyl)-2-(3,4,5-trimethoxyphenyl)ethene] are greater than 25 µM, greater than 25 µM, greater than 25 µM, greater than 25 µM and greater than 25 µM.
In the case of `COc1cc(CNc2cc(OC)c(OC)c(OC)c2)cc(OC)c1OC` [12f], the IC50 (in assay [1]; in the assay on A-549 lung carcinoma; in the assay on MLM melanoma ([…]); in the assay on SKMEL-5 melanoma; with MCF-7 breast carcinoma) was greater than 25 µM in each case.
In the case of `COc1cc(/C=C/c2ccc(OC(C)=O)cc2)cc(OC)c1OC` [6p, (E)-1-(4-Acetoxyphenyl)-2-(3,4,5-trimethoxyphenyl)ethene], the IC50 in assay [1] was determined as 5.4 µM; with A-549 lung carcinoma, 9.7 µM; in the assay with MLM melanoma ([…]), 13 µM; in the assay with SKMEL-5 melanoma it was 4.6 µM; with MCF-7 breast carcinoma, 9.6 µM.
The like results for `COc1cc(/C=C/c2ccc(Br)cc2)cc(OC)c1OC` [6h] were, in that order, 12.7 µM, 6.47 µM, 5.13 µM, 6.53 µM and 9.14 µM.
For `COc1ccc(/C=C/c2ccccc2)cc1OC` [6q, (E)-1-(3,4-Dimethoxyphenyl)-2-phenylethene], the IC50 (in assay [1]; in the assay with A-549 lung carcinoma; in the assay with MLM melanoma ([…]); in the assay with SKMEL-5 melanoma; in the assay on MCF-7 breast carcinoma) was greater than 25 µM throughout.
Take `COc1cc(CCc2ccc(OC(C)=O)cc2)cc(OC)c1OC` [8p]: the IC50 in assay [1] was greater than 25 µM; with A-549 lung carcinoma it was 19 µM; in the assay with MLM melanoma ([…]) it was greater than 25 µM; in the assay on SKMEL-5 melanoma, greater than 25 µM; with MCF-7 breast carcinoma it was greater than 25 µM.
As for `COc1cccc(CCc2cc(OC)c(OC)c(OC)c2)c1` [8b], the IC50 in assay [1] is 7.6 µM; with A-549 lung carcinoma, 11.7 µM; in the assay with MLM melanoma ([…]), greater than 25 µM; with SKMEL-5 melanoma it was 9.2 µM; with MCF-7 breast carcinoma, 12.4 µM.
The like results for `COc1ccc(/C=C/c2ccccc2)c(OC)c1OC` [6r, (E)-1-Phenyl-2-(2,3,4-trimethoxyphenyl)ethene] were, in that order, greater than 25 µM, greater than 25 µM, greater than 25 µM, greater than 25 µM and greater than 25 µM.
The like results for `COc1cc(/C=C/c2ccc(N)cc2)cc(OC)c1OC` [6z, (E)-1-(4-Aminophenyl)-2-(3,4,5-trimethoxyphenyl)ethene] were, in that order, greater than 25 µM, greater than 25 µM, greater than 25 µM, greater than 25 µM and greater than 25 µM.
For the molecule “(E)-1-[4-(Benzyloxy)-3,5-(dimethoxy)phenyl]-2-(4-methoxyphenyl)ethene [16j]”, the IC50 in the assay with MLM melanoma (MLM, MTT, six days, 8640 min) was greater than 25 µM.

(Values after patent publication US5430062A, “Stilbene derivatives as anticancer agents” (priority 1993, dated 1995).)
